Reference: patent publication US12264156B2, “Compounds and pharmaceutical compositions thereof for the treatment of diseases” (GALAPAGOS NV, priority 2018, dated 2025)

Assays:
[1] = system: LPS-induced TNFα in monocyte-derived macrophages (MdM); assay: MdM assay: LPS-triggered TNFα (ELISA); type: cell-based, human; settings: Homo sapiens, Macrophage, 20 h, monocyte-derived macrophages, LPS 200 ng/mL, supernatant after 20 h; read-out: TNFα EC50
Outline: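 Human monocyte-derived macrophages from CD14+ bead-selected buffy-coat PBMCs, used on day 10, pre-treated with compound for 1 h at 37 °C (0.2% DMSO), then stimulated with 200 ng/mL LPS. Supernatant taken after 20 h for TNFα sandwich ELISA (IL-10 at 2 h).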

SIK2 = target: T1, SIK2 (Homo sapiens, UniProt Q9H0K1); assay: ADP-Glo kinase assay, SIK2; type: biochemical; settings: ADP-Glo SIK kinase assay
T1 construct: purchased ThermoFisher Scientific PV4792
T1 sequence (Q9H0K1 whole entry): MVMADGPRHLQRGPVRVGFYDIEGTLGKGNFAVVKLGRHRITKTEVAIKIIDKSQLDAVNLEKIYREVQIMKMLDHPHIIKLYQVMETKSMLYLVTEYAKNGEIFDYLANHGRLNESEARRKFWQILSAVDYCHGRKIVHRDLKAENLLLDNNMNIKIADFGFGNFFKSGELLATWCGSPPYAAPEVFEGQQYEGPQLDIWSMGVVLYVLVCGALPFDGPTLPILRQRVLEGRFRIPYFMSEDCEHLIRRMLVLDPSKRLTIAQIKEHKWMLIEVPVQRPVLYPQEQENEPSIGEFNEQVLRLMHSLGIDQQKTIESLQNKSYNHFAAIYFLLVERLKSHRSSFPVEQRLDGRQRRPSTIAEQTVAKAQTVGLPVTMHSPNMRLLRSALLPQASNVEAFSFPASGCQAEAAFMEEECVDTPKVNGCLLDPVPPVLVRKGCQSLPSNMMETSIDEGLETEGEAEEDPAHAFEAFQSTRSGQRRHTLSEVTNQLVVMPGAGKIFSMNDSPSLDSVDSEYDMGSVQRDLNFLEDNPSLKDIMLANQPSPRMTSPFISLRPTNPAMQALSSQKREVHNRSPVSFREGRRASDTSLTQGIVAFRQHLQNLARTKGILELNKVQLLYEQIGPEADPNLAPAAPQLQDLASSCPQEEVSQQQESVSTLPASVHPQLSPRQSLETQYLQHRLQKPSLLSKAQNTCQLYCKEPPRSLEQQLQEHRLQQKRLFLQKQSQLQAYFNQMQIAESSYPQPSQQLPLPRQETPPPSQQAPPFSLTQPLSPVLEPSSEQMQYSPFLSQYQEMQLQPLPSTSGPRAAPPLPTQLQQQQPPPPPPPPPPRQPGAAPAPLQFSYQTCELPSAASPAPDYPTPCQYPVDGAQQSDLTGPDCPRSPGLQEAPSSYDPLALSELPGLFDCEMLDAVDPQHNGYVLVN
Outline: (§1)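 Kinase reactions (enzyme-substrate mix plus ATP) ran 120 min at room temperature for each of SIK3 and SIK2. Signal came from ADP-Glo: unconsumed ATP removed (40 min), ADP reconverted and detected by luciferase/luciferin (30 min), with luminescence tracking kinase activity. 10 μM staurosporine and 1% DMSO (final) served as controls.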

SIK3 = target: T2, SIK3 (Homo sapiens, UniProt Q9Y2K2); assay: ADP-Glo kinase assay, SIK3; type: biochemical; settings: ADP-Glo SIK kinase assay
T2 construct: purchased SignalChem S12-11G-100
T2 sequence (Q9Y2K2 whole entry): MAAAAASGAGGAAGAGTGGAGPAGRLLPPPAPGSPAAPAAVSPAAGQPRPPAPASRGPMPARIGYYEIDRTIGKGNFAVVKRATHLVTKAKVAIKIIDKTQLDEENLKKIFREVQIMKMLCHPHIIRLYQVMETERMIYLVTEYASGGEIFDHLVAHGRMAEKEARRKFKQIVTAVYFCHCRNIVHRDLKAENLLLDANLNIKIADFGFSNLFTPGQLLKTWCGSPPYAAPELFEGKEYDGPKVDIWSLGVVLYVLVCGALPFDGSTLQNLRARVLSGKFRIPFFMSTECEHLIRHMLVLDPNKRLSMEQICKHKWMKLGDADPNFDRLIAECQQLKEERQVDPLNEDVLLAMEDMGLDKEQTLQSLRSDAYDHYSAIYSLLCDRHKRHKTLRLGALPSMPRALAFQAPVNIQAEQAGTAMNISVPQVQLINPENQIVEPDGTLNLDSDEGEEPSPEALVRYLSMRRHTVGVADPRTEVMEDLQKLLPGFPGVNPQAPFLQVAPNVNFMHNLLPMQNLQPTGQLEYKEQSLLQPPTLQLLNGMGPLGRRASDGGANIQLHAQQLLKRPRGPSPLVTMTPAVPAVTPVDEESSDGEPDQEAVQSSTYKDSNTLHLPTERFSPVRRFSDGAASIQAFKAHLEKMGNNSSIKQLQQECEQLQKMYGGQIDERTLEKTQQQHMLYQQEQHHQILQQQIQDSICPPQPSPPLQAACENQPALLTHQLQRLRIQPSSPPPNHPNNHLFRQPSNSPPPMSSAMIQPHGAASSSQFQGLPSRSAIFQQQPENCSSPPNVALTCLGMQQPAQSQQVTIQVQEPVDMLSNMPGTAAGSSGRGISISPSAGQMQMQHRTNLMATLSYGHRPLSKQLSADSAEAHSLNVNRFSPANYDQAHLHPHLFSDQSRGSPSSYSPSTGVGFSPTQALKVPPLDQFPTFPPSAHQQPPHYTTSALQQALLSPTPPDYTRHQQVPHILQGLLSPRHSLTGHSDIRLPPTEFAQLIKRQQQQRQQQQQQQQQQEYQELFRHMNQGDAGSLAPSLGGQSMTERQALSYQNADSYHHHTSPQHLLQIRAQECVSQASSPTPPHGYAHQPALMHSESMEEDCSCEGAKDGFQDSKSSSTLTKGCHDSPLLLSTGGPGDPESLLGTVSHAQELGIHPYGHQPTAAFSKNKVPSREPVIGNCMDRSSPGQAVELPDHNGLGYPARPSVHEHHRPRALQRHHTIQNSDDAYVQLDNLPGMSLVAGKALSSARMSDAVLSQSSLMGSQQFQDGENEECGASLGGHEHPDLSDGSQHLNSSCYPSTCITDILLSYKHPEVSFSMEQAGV
Outline: as §1

SIK1 = target: T3, SIK1 (Homo sapiens, UniProt P57059); assay: ADP-Glo kinase assay, SIK1; type: biochemical; settings: ADP-Glo SIK kinase assay
T3 construct: purchased Carna Biosciences 02-131
T3 sequence (P57059 whole entry): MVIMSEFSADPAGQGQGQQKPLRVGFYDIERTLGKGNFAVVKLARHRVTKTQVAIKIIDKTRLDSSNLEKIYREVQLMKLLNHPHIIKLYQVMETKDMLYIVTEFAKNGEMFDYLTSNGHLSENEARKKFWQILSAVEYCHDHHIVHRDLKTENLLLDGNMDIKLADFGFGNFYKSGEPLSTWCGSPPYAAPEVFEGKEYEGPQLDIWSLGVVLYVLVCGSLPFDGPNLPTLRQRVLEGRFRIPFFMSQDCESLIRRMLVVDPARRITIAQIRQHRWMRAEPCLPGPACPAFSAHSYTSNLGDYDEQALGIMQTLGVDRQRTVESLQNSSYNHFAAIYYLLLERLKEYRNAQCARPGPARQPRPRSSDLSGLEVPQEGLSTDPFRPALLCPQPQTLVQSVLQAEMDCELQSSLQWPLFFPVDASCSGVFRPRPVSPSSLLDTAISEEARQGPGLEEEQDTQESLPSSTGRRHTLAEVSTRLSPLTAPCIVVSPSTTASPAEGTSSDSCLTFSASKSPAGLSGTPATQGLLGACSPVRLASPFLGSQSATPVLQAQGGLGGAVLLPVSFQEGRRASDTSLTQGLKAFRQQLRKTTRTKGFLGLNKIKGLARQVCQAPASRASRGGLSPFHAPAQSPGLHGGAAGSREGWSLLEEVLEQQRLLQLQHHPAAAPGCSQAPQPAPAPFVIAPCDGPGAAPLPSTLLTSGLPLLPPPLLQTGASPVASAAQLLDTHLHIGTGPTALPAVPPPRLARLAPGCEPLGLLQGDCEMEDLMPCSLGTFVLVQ
Outline: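 Wells with 1% DMSO or 10 μM staurosporine (final) define the control window. The kinase reaction with substrate and ATP runs 120 min at RT, followed by ADP-Glo detection: ATP depletion (40 min) and ADP-derived luminescence (30 min).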

| SMILES | EC50 [1] | IC50 (SIK2) | IC50 (SIK3) | IC50 (SIK1) |
| --- | --- | --- | --- | --- |
| COc1cc(-c2cnc3cc(OC(C)C(F)(F)F)ccn23)cc(OC(F)F)c1C(=O)NC1CC1 (stereo not shown) [compound 45, N-cyclopropyl-2-(difluoromethoxy)-6-methoxy-4-[7-(2,2,2-trifluoro-1-methyl-ethoxy)imidazo[1,2-a]pyridin-3-yl]benzamide] | 100 to 1000 nM | 10 to 100 nM | 0.01 to 10 nM | 100 to 500 nM |
| COc1cc(-c2cnc3cc(OCCN(C)C)ccn23)cc2c1C(=O)N(CC(F)F)CC2 [compound 54, 2-(2,2-difluoroethyl)-6-[7-[2-(dimethylamino)ethoxy]imidazo [1,2-a]pyridin-3-yl]-8-methoxy-3,4-dihydro isoquinolin-1-one] | 100 to 1000 nM | 0.01 to 10 nM | 10 to 100 nM | > 500 nM |
| COc1cc(-c2cnc3cc(OC[C@H]4CCCN4C)ccn23)cc(OC(F)F)c1C(=O)NC1CC1 [compound 81, N-cyclopropyl-2-(difluoromethoxy)-6-methoxy-4-[7-[[(2R)-1-methylpyrrolidin-2-yl]methoxy]imidazo[1,2-a]pyridin-3-yl]benzamide] | 100 to 1000 nM | 0.01 to 10 nM | 0.01 to 10 nM | 100 to 500 nM |
| CCN1CCCCC1COc1ccn2c(-c3cc(OC)c(C(=O)NC4CC4)c(OC(F)F)c3)cnc2c1 (stereo not shown) [compound 83, N-cyclopropyl-2-(difluoromethoxy)-4-[7-[(1-ethyl-2-piperidyl)methoxy]imidazo [1,2-a]pyridin-3-yl]-6-methoxy-benzamide] | 100 to 1000 nM | 0.01 to 10 nM | 0.01 to 10 nM | 100 to 500 nM |
| COc1cc(-c2cnc3cc(OCC(C)(C)N)ccn23)cc(OC(F)F)c1C(=O)NC1CC1 [compound 104, 4-[7-(2-amino-2-methyl-propoxy)imidazo[1,2-a]pyridin-3-yl]-N-cyclopropyl-2-(difluoromethoxy)-6-methoxy-benzamide] | 1000 to 5000 nM | 0.01 to 10 nM | 0.01 to 10 nM | 100 to 500 nM |
| CCN(CC)CCOc1ccn2c(-c3cc(OC)c(C(=O)NC4CC4)c(OC(F)F)c3)cnc2c1 [compound 107, N-cyclopropyl-4-[7-[2-(diethylamino)ethoxy]imidazo[1,2-a]pyridin-3-yl]-2-(difluoromethoxy)-6-methoxy-benzamide] | 100 to 1000 nM | 0.01 to 10 nM | 0.01 to 10 nM | 100 to 500 nM |
| COc1cc(-c2cnc3cc(OC[C@H]4CCCCN4C)ccn23)cc(OC(F)F)c1C(=O)NC1CC1 [compound 111, N-cyclopropyl-2-(difluoromethoxy)-6-methoxy-4-[7-[[(2R)-1-methyl-2-piperidyl]methoxy]imidazo[1,2-a]pyridin-3-yl]benzamide] | 100 to 1000 nM | 0.01 to 10 nM | 0.01 to 10 nM | 100 to 500 nM |
| CNCCOc1ccn2c(-c3cc(OC)c(C(=O)NC4CC4)c(OC(F)F)c3)cnc2c1 [compound 117, N-cyclopropyl-2-(difluoromethoxy)-6-methoxy-4-[7-[2-(methylamino)ethoxy]imidazo[1,2-a]pyridin-3-yl]benzamide] | 100 to 1000 nM | 0.01 to 10 nM | 0.01 to 10 nM | 10 to 100 nM |
| COc1cc(-c2cnc3cc(OCCN)ccn23)cc(OC(F)F)c1C(=O)NC1CC1 [compound 118, 4-[7-(2-aminoethoxy)imidazo[1,2-a]pyridin-3-yl]-N-cyclopropyl-2-(difluoromethoxy)-6-methoxy-benzamide] | 100 to 1000 nM | 0.01 to 10 nM | 0.01 to 10 nM | 10 to 100 nM |
| COc1cc(-c2cnc3cc(OCCN4CCCC4)ccn23)cc2c1C(=O)N(CC(F)(F)F)CC2 [compound 123, 8-methoxy-6-[7-(2-pyrrolidin-1-ylethoxy)imidazo[1,2-a]pyridin-3-yl]-2-(2,2,2-trifluoroethyl)-3,4-dihydroisoquinolin-1-one] | 100 to 1000 nM | 0.01 to 10 nM | 0.01 to 10 nM | > 500 nM |
